According to PubChem BioAssay AID248 (DTP/NCI, 2004):
Values joined by “and” are separate entries in the source; they are usually repeats but may differ in a detail not shown here. Equal values may be shown once. Inconclusive results and toxic doses are left out. Cut-off read from the data, not from the text of the source: active = T/C of 150% or more; inactive = T/C below 125%.

Test system: L1210 leukemia ip in BDF1 mice, survival T/C
Assay: NCI In Vivo Anticancer Drug Screen. Data for tumor model L1210 Leukemia (intraperitoneal) in B6D2F1 (BDF1) mice
Conditions: endpoint: mean survival time, higher = longer survival
In short: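 Transplanted-tumor mice were given test agent; controls received vehicle only. Survival readings from the two groups were divided (treated over control).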

[1] = dose: 100.0 mg/kg/injection, schedule: Q04DX003 (ip), vehicle: saline with Tween-80
[2] = dose: 200.0 mg/kg/injection, schedule: Q04DX003 (ip), vehicle: saline with Tween-80
[3] = dose: 400.0 mg/kg/injection, schedule: Q04DX003 (ip), vehicle: saline with Tween-80
[4] = dose: 100.0 mg/kg/injection, schedule: Q01DX009 (ip), vehicle: saline
[5] = dose: 200.0 mg/kg/injection, schedule: Q01DX009 (ip), vehicle: saline
[6] = dose: 400.0 mg/kg/injection, schedule: Q01DX009 (ip), vehicle: saline
[7] = dose: 50.0 mg/kg/injection, schedule: Q01DX009 (ip), vehicle: saline with Tween-80
[8] = dose: 100.0 mg/kg/injection, schedule: Q01DX009 (ip), vehicle: saline with Tween-80
[9] = dose: 200.0 mg/kg/injection, schedule: Q01DX009 (ip), vehicle: saline with Tween-80
[10] = dose: 75.0 mg/kg/injection, schedule: Q01DX009 (ip), vehicle: Klucel (hydroxypropylcellulose) (HPC)
[11] = dose: 100.0 mg/kg/injection, schedule: Q04DX003 (ip), vehicle: saline
[12] = dose: 25.0 mg/kg/injection, schedule: Q04DX003 (ip), vehicle: Klucel (hydroxypropylcellulose) (HPC)
[13] = dose: 50.0 mg/kg/injection, schedule: Q04DX003 (ip), vehicle: Klucel (hydroxypropylcellulose) (HPC)
[14] = dose: 100.0 mg/kg/injection, schedule: Q01DX001 (ip), vehicle: Klucel (hydroxypropylcellulose) (HPC)
[15] = dose: 100.0 mg/kg/injection, schedule: Q01DX009 (ip), vehicle: Klucel (hydroxypropylcellulose) (HPC)
[16] = dose: 100.0 mg/kg/injection, schedule: Q04DX003 (ip), vehicle: Klucel (hydroxypropylcellulose) (HPC)
[17] = dose: 200.0 mg/kg/injection, schedule: Q01DX009 (ip), vehicle: Klucel (hydroxypropylcellulose) (HPC)

Measured: T/C

Clc1ccc2nc(C(Cl)(Cl)Cl)[nH]c2c1
inactive: [1] 98 % of control | [2] 104 % of control | [3] 95 % of control

OC1CCNc2ccccc21 (configuration not stated)
inactive: [4] 104 % of control | [5] 105 % of control | [6] 112 % of control

Cc1ccc(S(=O)(=O)[O][Pb]([CH3])([CH3])[CH3])cc1
inactive: dose: 3.12 mg/kg/injection, schedule: Q01DX009 (ip), vehicle: saline 104 % of control | dose: 3.12 mg/kg/injection, schedule: Q04DX002 (ip), vehicle: saline 108 % of control | dose: 6.25 mg/kg/injection, schedule: Q01DX009 (ip), vehicle: saline 86 % of control | dose: 6.25 mg/kg/injection, schedule: Q04DX002 (ip), vehicle: saline 108 % of control | dose: 12.5 mg/kg/injection, schedule: Q04DX002 (ip), vehicle: saline 101 % of control

CCOC(=O)C1N=C(c2ccccc2)OC1c1ccccc1 (configuration not stated)
inactive: [7] 94 % of control | [8] 94 % of control | [9] 102 % of control

CNC(=S)n1cncn1
inactive: [4] 91 % of control | [5] 108 % of control | [6] 92 % of control

Cc1cc(C)c(C(Cl)(Cl)Cl)c(C)c1Cl
inactive: dose: 22.0 mg/kg/injection, schedule: Q01DX009 (ip), vehicle: saline with Tween-80 119 % of control | dose: 33.0 mg/kg/injection, schedule: Q01DX009 (ip), vehicle: Klucel (hydroxypropylcellulose) (HPC) 113 % of control | dose: 33.0 mg/kg/injection, schedule: Q01DX009 (ip), vehicle: saline with Tween-80 112 % of control | dose: 50.0 mg/kg/injection, schedule: Q01DX009 (ip), vehicle: Klucel (hydroxypropylcellulose) (HPC) 100 % of control | [7] 118 % of control | [10] 107 % of control | dose: 75.0 mg/kg/injection, schedule: Q01DX009 (ip), vehicle: saline with Tween-80 113 % of control | dose: 100.0 mg/kg/injection, schedule: Q01DX001 (ip), vehicle: carboxymethylcellulose (CMC) 121 % of control | [8] 121 % of control | [1] 120 % of control | dose: 200.0 mg/kg/injection, schedule: Q01DX001 (ip), vehicle: carboxymethylcellulose (CMC) 118 % of control | [9] 103 % of control | [2] 108 % of control | dose: 400.0 mg/kg/injection, schedule: Q01DX001 (ip), vehicle: carboxymethylcellulose (CMC) 121 % of control

C(=N\NC1=NCCN1)/c1ccccc1
inactive: dose: 2.5 mg/kg/injection, schedule: Q01DX009 (ip), vehicle: saline 101 % of control | dose: 5.0 mg/kg/injection, schedule: Q01DX009 (ip), vehicle: saline 97 % of control | dose: 5.0 mg/kg/injection, schedule: Q04DX003 (ip), vehicle: saline 97 % of control | dose: 10.0 mg/kg/injection, schedule: Q01DX001 (ip), vehicle: saline 105 % of control | dose: 10.0 mg/kg/injection, schedule: Q01DX009 (ip), vehicle: saline 93 % of control | dose: 10.0 mg/kg/injection, schedule: Q04DX003 (ip), vehicle: saline 94 % of control | dose: 20.0 mg/kg/injection, schedule: Q01DX001 (ip), vehicle: saline 104 % of control | dose: 20.0 mg/kg/injection, schedule: Q04DX003 (ip), vehicle: saline 97 % of control

CCCCCCCCCC(C)CCCCCC (configuration not stated)
inactive: dose: 75.0 mg/kg/injection, schedule: Q01DX001 (ip), vehicle: saline with Tween-80 100 % of control | dose: 150.0 mg/kg/injection, schedule: Q01DX001 (ip), vehicle: saline with Tween-80 116 % of control | dose: 300.0 mg/kg/injection, schedule: Q01DX001 (ip), vehicle: saline with Tween-80 92 % of control

Cc1ccc(S(=O)(=O)N(CCCc2c(N)nc(N)nc2-c2ccccc2)c2ccccc2)cc1
inactive: [11] 100 % of control | dose: 200.0 mg/kg/injection, schedule: Q04DX003 (ip), vehicle: saline 97 % of control

O=C(Nc1cc(F)ccc1F)Oc1cccnc1
inactive: dose: 25.0 mg/kg/injection, schedule: Q01DX001 (ip), vehicle: Klucel (hydroxypropylcellulose) (HPC) 102 % of control | [12] 107 % of control | dose: 50.0 mg/kg/injection, schedule: Q01DX001 (ip), vehicle: Klucel (hydroxypropylcellulose) (HPC) 104 % of control | [13] 106 % of control | [10] 103 % of control and 108 % of control | [14] 96 % of control | [15] 95 % of control and 109 % of control | dose: 100.0 mg/kg/injection, schedule: Q04DX002 (ip), vehicle: Klucel (hydroxypropylcellulose) (HPC) 95 % of control and 105 % of control | [16] 97 % of control | dose: 150.0 mg/kg/injection, schedule: Q01DX009 (ip), vehicle: Klucel (hydroxypropylcellulose) (HPC) 107 % of control | [17] 100 % of control | dose: 200.0 mg/kg/injection, schedule: Q04DX002 (ip), vehicle: Klucel (hydroxypropylcellulose) (HPC) 100 % of control and 108 % of control | dose: 400.0 mg/kg/injection, schedule: Q04DX002 (ip), vehicle: Klucel (hydroxypropylcellulose) (HPC) 94 % of control and 87 % of control

Cc1ccc(N2C(=O)c3cc4ccccc4c(-c4ccccn4)c3C2=O)cc1
inactive: dose: 12.5 mg/kg/injection, schedule: Q04DX003 (ip), vehicle: Klucel (hydroxypropylcellulose) (HPC) 103 % of control | [12] 103 % of control | [13] 103 % of control | [16] 94 % of control

O=C(O)c1cccc2c1C(=O)c1ccccc1-2
inactive: [14] 93 % of control | dose: 200.0 mg/kg/injection, schedule: Q01DX001 (ip), vehicle: Klucel (hydroxypropylcellulose) (HPC) 106 % of control | dose: 400.0 mg/kg/injection, schedule: Q01DX001 (ip), vehicle: Klucel (hydroxypropylcellulose) (HPC) 101 % of control

CC(=O)OC1CCC2(C)C(=CCC3C2CCC2(C)C3CC3OC4(CCC(C)CO4)C(C)C32)C1 (configuration not stated)
inactive: [15] 98 % of control | [17] 96 % of control | dose: 400.0 mg/kg/injection, schedule: Q01DX009 (ip), vehicle: Klucel (hydroxypropylcellulose) (HPC) 95 % of control

CC/C=C(\C)C1(C(C)C)C(=O)NC(=O)NC1=O
inactive: dose: 75.0 mg/kg/injection, schedule: Q01DX001 (ip), vehicle: carboxymethylcellulose (CMC) 105 % of control

CCCCCCCC(N)=O
inactive: [7] 97 % of control | [8] 107 % of control and 90 % of control | [1] 100 % of control | [9] 97 % of control and 106 % of control | [2] 93 % of control | dose: 400.0 mg/kg/injection, schedule: Q01DX009 (ip), vehicle: saline with Tween-80 114 % of control | [3] 91 % of control

Cc1cc([N+](=O)[O-])sc1[N+](=O)[O-]
inactive: dose: 25.0 mg/kg/injection, schedule: Q01DX009 (ip), vehicle: saline 108 % of control | dose: 50.0 mg/kg/injection, schedule: Q01DX009 (ip), vehicle: saline 97 % of control | [4] 110 % of control | [11] 101 % of control

OC(c1ccccc1)(c1ccccc1)c1ccsc1
inactive: [7] 86 % of control | [8] 86 % of control

CC(C)CCOC(=O)C1OC1(C)c1ccccc1 (configuration not stated)
inactive: dose: 100.0 mg/kg/injection, schedule: Q04DX002 (ip), vehicle: saline 101 % of control | dose: 200.0 mg/kg/injection, schedule: Q04DX002 (ip), vehicle: saline 93 % of control | dose: 400.0 mg/kg/injection, schedule: Q04DX002 (ip), vehicle: saline 112 % of control

O=[N+]([O-])c1ccc(OP(=O)(Oc2ccc([N+](=O)[O-])cc2)Oc2ccc([N+](=O)[O-])cc2)cc1
inactive: dose: 100.0 mg/kg/injection, schedule: Q04DX003 (ip), vehicle: gum acacia 97 % of control and 107 % of control | dose: 200.0 mg/kg/injection, schedule: Q04DX003 (ip), vehicle: gum acacia 92 % of control and 103 % of control | dose: 400.0 mg/kg/injection, schedule: Q04DX003 (ip), vehicle: gum acacia 94 % of control and 95 % of control

CNC(=O)OCC1=CC(=O)C=C(OC)C1=O
inactive: dose: 6.25 mg/kg/injection, schedule: Q01DX009 (ip), vehicle: gum acacia 90 % of control | dose: 12.5 mg/kg/injection, schedule: Q04DX003 (ip), vehicle: gum acacia 94 % of control | dose: 25.0 mg/kg/injection, schedule: Q04DX003 (ip), vehicle: gum acacia 101 % of control

O=C(C(Sc1ccccc1)=P(c1ccccc1)(c1ccccc1)c1ccccc1)c1ccccc1
inactive: [1] 90 % of control | [2] 90 % of control
